Tests used:
ΔCBM [1] = target: T1, ΔCBM (Meiothermus taiwanensis, UniProt A0A399DY85, DEL251-380); test: X-ray crystal structure (crystal soaked with […] cellobiose); assay type: binding; conditions: 1.53 Å; between Trp43 and Trp224
T1 construct: gene celH; CBM-deleted MtGlu5, residues 1-235 joined to 366-455 (catalytic domain only); pET-21, C-terminal His6; E. coli BL21(DE3)

ΔCBM [2] = target: T1, ΔCBM; test: X-ray crystal structure (crystal soaked with cellopentaose); assay type: binding; conditions: 1.53 Å; between Trp43 and Trp224; glucose from cellopentaose cleavage
MtGlu5 [3] = target: T2, MtGlu5 (Meiothermus taiwanensis, UniProt A0A399DY85); test: X-ray crystal structure (co-crystallised with CMC); assay type: binding; conditions: 2.99 Å; glucose from CMC hydrolysis, stacked between Trp43 and Trp224 in the catalytic pocket (-2 or -3 subsite)
T2 construct: gene celH; residues 15-470, signal peptide removed, catalytic domain with inserted CBM29-like domain (236-365); pET-21, C-terminal His6; E. coli BL21(DE3)
T2 sequence (A0A399DY85 entry or part of it): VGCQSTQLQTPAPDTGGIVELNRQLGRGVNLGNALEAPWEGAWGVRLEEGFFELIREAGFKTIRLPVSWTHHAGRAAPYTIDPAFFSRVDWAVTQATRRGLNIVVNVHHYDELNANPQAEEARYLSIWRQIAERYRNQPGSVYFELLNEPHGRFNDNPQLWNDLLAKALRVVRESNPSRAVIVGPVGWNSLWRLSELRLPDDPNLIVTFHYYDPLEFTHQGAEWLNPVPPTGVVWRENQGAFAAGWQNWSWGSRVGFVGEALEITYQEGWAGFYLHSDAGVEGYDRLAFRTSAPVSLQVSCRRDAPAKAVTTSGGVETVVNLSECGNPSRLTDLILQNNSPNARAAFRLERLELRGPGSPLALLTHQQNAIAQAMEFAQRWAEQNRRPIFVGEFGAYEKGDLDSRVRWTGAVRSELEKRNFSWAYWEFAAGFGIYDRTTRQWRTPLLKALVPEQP

MtGlu5 [4] = target: T2, MtGlu5; test: hydrolysis, specific activity (reducing sugar, DNS); assay type: biochemical; conditions: optimum pH 5.0, 60 °C
ΔCBM [5] = target: T1, ΔCBM; test: turnover in the soaked crystal (glucose found instead of cellopentaose); assay type: binding; conditions: crystal soak, 10 mM cellopentaose

T1 sequence (A0A399DY85 entry or part of it DEL251-380): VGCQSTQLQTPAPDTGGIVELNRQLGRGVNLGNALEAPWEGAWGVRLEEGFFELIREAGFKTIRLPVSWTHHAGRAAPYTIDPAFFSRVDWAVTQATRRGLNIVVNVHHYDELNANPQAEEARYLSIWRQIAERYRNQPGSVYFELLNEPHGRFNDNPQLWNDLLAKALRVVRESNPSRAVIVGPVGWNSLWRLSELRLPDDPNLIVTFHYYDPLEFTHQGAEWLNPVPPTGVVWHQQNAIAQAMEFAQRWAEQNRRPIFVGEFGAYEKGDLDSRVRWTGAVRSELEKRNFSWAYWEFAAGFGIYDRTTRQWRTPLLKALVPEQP

For OC[C@H]1O[C@@H](O[C@H]2[C@H](O)[C@@H](O)C(O)O[C@@H]2CO)[C@H](O)[C@@H](O)[C@@H]1O (some centres unmarked) [cellobiose], the “X-ray crystal structure (crystal soaked with 10 mM cellobiose)” value (ΔCBM [1]) was “ΔCBM crystals in complex with glucose and cellobiose were obtained by soaking with cellopentaose and cellobiose”.
In the case of OC[C@H]1OC(O)[C@H](O)[C@@H](O)[C@@H]1O (some centres unmarked) [glucose], the “X-ray crystal structure (crystal soaked with cellopentaose)” value (ΔCBM [2]) is reported as “ΔCBM crystals in complex with glucose and cellobiose were obtained by soaking with cellopentaose and cellobiose” and the “X-ray crystal structure (co-crystallised with CMC)” value (MtGlu5 [3]) is reported as “Bound glucose was observed in the MtGlu5 crystal”.
In the case of OC[C@H]1O[C@@H](O[C@H]2[C@H](O)[C@@H](O)[C@H](O[C@H]3[C@H](O)[C@@H](O)[C@H](O[C@H]4[C@H](O)[C@@H](O)[C@H](O[C@H]5[C@H](O)[C@@H](O)C(O)O[C@@H]5CO)O[C@@H]4CO)O[C@@H]3CO)O[C@@H]2CO)[C@H](O)[C@@H](O)[C@@H]1O (some centres unmarked) [cellopentaose], the “hydrolysis, specific activity (reducing sugar, DNS)” value (MtGlu5 [4]) is reported as “specific activities of MtGlu5 towards CMC, β-glucan (barley) and cellopentaose” and the “turnover in the soaked crystal (glucose found instead of cellopentaose)” value (ΔCBM [5]) is reported as “presence of bound glucose rather than cellopentaose in the former crystal”.

Source: PMC9063844, “Synergic action of an inserted carbohydrate-binding module in a glycoside hydrolase family 5 endoglucanase” (Acta Crystallographica. Section D, Structural Biology, 2022)
